{"source": "paper PMC9374744", "about": "“Structural basis for receptor selectivity and inverse agonism in S1P5 receptors” (Nature Communications, 2022)", "key": {"[1]": {"biological_target": "human S1P5 E112Q mutant (Homo sapiens, UniProt Q9H228, E112Q)", "sequence (Q9H228 whole entry E112Q)": "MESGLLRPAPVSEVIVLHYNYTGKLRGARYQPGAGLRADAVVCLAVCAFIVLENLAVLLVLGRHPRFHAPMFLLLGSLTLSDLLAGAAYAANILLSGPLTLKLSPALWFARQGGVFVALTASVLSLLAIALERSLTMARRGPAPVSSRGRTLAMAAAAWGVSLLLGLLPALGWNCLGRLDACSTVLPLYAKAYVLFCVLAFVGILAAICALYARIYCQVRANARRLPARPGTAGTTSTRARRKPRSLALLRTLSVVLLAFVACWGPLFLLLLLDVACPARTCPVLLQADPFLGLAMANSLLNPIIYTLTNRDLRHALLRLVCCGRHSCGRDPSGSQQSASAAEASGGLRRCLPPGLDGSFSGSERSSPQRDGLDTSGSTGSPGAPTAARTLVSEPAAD", "assay": "BRET-based cAMP Gi signaling assay, S1P5 E112Q", "conditions": "inverse agonism, n=3, N/R = no response"}, "[2]": {"biological_target": "human S1P5 L292A mutant (Homo sapiens, UniProt Q9H228, L292A)", "sequence (Q9H228 whole entry L292A)": "as the sequence (Q9H228 whole entry E112Q) above, with Q112E, L292A counted along it", "assay": "BRET-based cAMP Gi signaling assay, S1P5 L292A", "conditions": "inverse agonism"}, "[3]": {"biological_target": "human S1P5 L292V mutant (Homo sapiens, UniProt Q9H228, L292V)", "sequence (Q9H228 whole entry L292V)": "as the sequence (Q9H228 whole entry E112Q) above, with Q112E, L292V counted along it", "assay": "BRET-based cAMP Gi signaling assay, S1P5 L292V", "conditions": "inverse agonism"}, "[4]": {"biological_target": "human S1P5 G293A mutant (Homo sapiens, UniProt Q9H228, G293A)", "sequence (Q9H228 whole entry G293A)": "as the sequence (Q9H228 whole entry E112Q) above, with Q112E, G293A counted along it", "assay": "BRET-based cAMP Gi signaling assay, S1P5 G293A", "conditions": "inverse agonism"}, "[5]": {"biological_target": "human S1P5 M296W mutant (Homo sapiens, UniProt Q9H228, M296W)", "sequence (Q9H228 whole entry M296W)": "as the sequence (Q9H228 whole entry E112Q) above, with Q112E, M296W counted along it", "assay": "BRET-based cAMP Gi signaling assay, S1P5 M296W", "conditions": "for BRET ratio, single replicate readings (Supplementary Figure 6h): listed as ONO"}, "[6]": {"biological_target": "human S1P5 L318Q mutant (Homo sapiens, UniProt Q9H228, L318Q)", "sequence (Q9H228 whole entry L318Q)": "as the sequence (Q9H228 whole entry E112Q) above, with Q112E, L318Q counted along it", "assay": "BRET-based cAMP Gi signaling assay, S1P5 L318Q", "conditions": "inverse agonism"}, "[7]": {"biological_target": "human WT S1P5 receptor (Homo sapiens, UniProt Q9H228)", "sequence (Q9H228 whole entry)": "as the sequence (Q9H228 whole entry E112Q) above, with Q112E counted along it", "assay": "BRET-based cAMP (EPAC biosensor) Gi signaling assay, WT S1P5", "conditions": "for BRET signal, raw replicate readings: WT, listed as ONO; for EC50: inverse agonism"}}, "note": "“And” between values parts separate entries of the source, which are not always exact repeats. Equal values may be shown once.", "data": [{"smiles": "O=C(O)CCCN1CCc2cccc(OCCc3cccc4ccccc34)c2CC1", "note": "[ONO-5430608, 4-{6-[2-(1-naphthyl)ethoxy]-1,2,4,5-tetrahydro-3H-3-benzazepin-3-yl} butanoic acid]", "values": [{"measurement": "ONO, pEC50, M", "setting": "[1]", "result": "N/R"}, {"measurement": "EC50", "setting": "[2]; ONO, pEC50, M, L292A, mean ± SD, n=3", "result": 21.9, "unit": "nM"}, {"measurement": "EC50", "setting": "[2]; ONO-5430608 pEC50, single experiments #1-#3, L292A, Figure 2c source data", "result": "18.9 nM and 24 nM and 23.2 nM"}, {"measurement": "EC50", "setting": "[3]; ONO, pEC50, M, L292V, mean ± SD, n=3", "result": 23.4, "unit": "nM"}, {"measurement": "EC50", "setting": "[3]; ONO-5430608 pEC50, single experiments #1-#3, L292V, Figure 2c source data", "result": "23 nM and 25.6 nM and 22.5 nM"}, {"measurement": "EC50", "setting": "[4]; ONO, pEC50, M, G293A, mean ± SD, n=3", "result": 4.57, "unit": "nM"}, {"measurement": "EC50", "setting": "[4]; ONO-5430608 pEC50, single experiments #1-#3, G293A, Figure 2c source data", "result": "5.11 nM and 4.57 nM and 4.12 nM"}, {"measurement": "BRET ratio, single replicate readings (Supplementary Figure 6h)", "setting": "[5]; [ONO] 0.169351 nM", "result": "0.7521 and 0.7659 and 0.7554 and 0.7607 and 0.7663 and 0.7553 and 0.7695 and 0.7638 and 0.7661"}, {"measurement": "BRET ratio, single replicate readings (Supplementary Figure 6h)", "setting": "[5]; [ONO] 0.508053 nM", "result": "0.7597 and 0.7659 and 0.7636 and 0.7627 and 0.756 and 0.7622 and 0.7625 and 0.7687 and 0.7621"}, {"measurement": "BRET ratio, single replicate readings (Supplementary Figure 6h)", "setting": "[5]; [ONO] 1.52416 nM", "result": "0.7595 and 0.7589 (2×) and 0.7566 and 0.7528 and 0.7609 and 0.7625 and 0.7671 and 0.7682"}, {"measurement": "BRET ratio, single replicate readings (Supplementary Figure 6h)", "setting": "[5]; [ONO] 4.57247 nM", "result": "0.7595 and 0.7699 and 0.7641 and 0.7574 and 0.7643 and 0.7563 and 0.7684 and 0.7632 and 0.7578"}, {"measurement": "BRET ratio, single replicate readings (Supplementary Figure 6h)", "setting": "[5]; [ONO] 13.7174 nM", "result": "0.7542 and 0.7653 and 0.7527 and 0.7649 and 0.7654 and 0.7644 and 0.7698 and 0.7669 and 0.7638"}, {"measurement": "BRET ratio, single replicate readings (Supplementary Figure 6h)", "setting": "[5]; [ONO] 41.1523 nM", "result": "0.7431 and 0.7677 and 0.7621 and 0.752 and 0.762 and 0.7675 and 0.761 and 0.7565 and 0.7598"}, {"measurement": "BRET ratio, single replicate readings (Supplementary Figure 6h)", "setting": "[5]; [ONO] 123.457 nM", "result": "0.7416 and 0.7628 and 0.7677 and 0.7662 and 0.759 and 0.753 and 0.7663 and 0.7668 and 0.7626"}, {"measurement": "BRET ratio, single replicate readings (Supplementary Figure 6h)", "setting": "[5]; [ONO] 370.37 nM", "result": "0.7572 and 0.757 and 0.7547 and 0.7694 and 0.7517 and 0.7654 and 0.7672 and 0.761 and 0.7564"}, {"measurement": "BRET ratio, single replicate readings (Supplementary Figure 6h)", "setting": "[5]; [ONO] 1111.11 nM", "result": "0.7578 and 0.7573 and 0.7667 and 0.7569 and 0.7627 and 0.7676 and 0.756 and 0.7697 and 0.7628"}, {"measurement": "BRET ratio, single replicate readings (Supplementary Figure 6h)", "setting": "[5]; [ONO] 3333.33 nM", "result": "0.7629 and 0.7592 and 0.7535 and 0.7543 and 0.758 and 0.7671 and 0.744 and 0.7683 and 0.7586"}, {"measurement": "ONO-5430608 pEC50, single experiments #1-#3", "setting": "[5]; inverse agonism, Figure 2c source data, N/R = no response", "result": "N/R"}, {"measurement": "ONO, pEC50, M", "setting": "[5]; inverse agonism, n=3, N/R = no response", "result": "N/R"}, {"measurement": "EC50", "setting": "[6]; ONO, pEC50, M, L318Q, mean ± SD, n=3", "result": 22.4, "unit": "nM"}, {"measurement": "EC50", "setting": "[6]; ONO-5430608 pEC50, single experiments #1-#3, L318Q, Figure 2c source data", "result": "23 nM and 24.6 nM and 20.4 nM"}, {"measurement": "BRET signal, raw replicate readings", "setting": "[7]; ONO 0.169351 nM, Suppl. Fig. 6f", "result": "0.7609 and 0.7595 and 0.7587 and 0.7654 and 0.7615 and 0.7604 (2×) and 0.7628 and 0.7565"}, {"measurement": "BRET signal, raw replicate readings", "setting": "[7]; ONO 0.508053 nM, Suppl. Fig. 6f", "result": "0.753 and 0.7592 and 0.758 and 0.7626 and 0.762 and 0.759 and 0.761 and 0.7561 and 0.756"}, {"measurement": "BRET signal, raw replicate readings", "setting": "[7]; ONO 1.52416 nM, Suppl. Fig. 6f", "result": "0.748 and 0.7474 and 0.7478 (2×) and 0.7504 and 0.7525 and 0.7488 and 0.7446 and 0.7482"}, {"measurement": "BRET signal, raw replicate readings", "setting": "[7]; ONO 4.57247 nM, Suppl. Fig. 6f", "result": "0.7341 and 0.7354 and 0.7359 and 0.7386 and 0.7387 and 0.7347 and 0.7361 and 0.7362 and 0.7324"}, {"measurement": "BRET signal, raw replicate readings", "setting": "[7]; ONO 13.7174 nM, Suppl. Fig. 6f", "result": "0.7302 and 0.7285 and 0.7222 and 0.7325 and 0.7293 and 0.7332 and 0.7263 and 0.7276 and 0.7242"}, {"measurement": "BRET signal, raw replicate readings", "setting": "[7]; ONO 41.1523 nM, Suppl. Fig. 6f", "result": "0.7214 and 0.7273 and 0.7219 and 0.7256 and 0.7267 and 0.7266 and 0.7211 and 0.723 and 0.7239"}, {"measurement": "BRET signal, raw replicate readings", "setting": "[7]; ONO 123.457 nM, Suppl. Fig. 6f", "result": 0.7206}, {"measurement": "BRET signal, raw replicate readings", "setting": "[7]; ONO 370.37 nM, Suppl. Fig. 6f", "result": "0.7228 and 0.7223 and 0.7157 and 0.7233 and 0.7238 and 0.7187 and 0.7181 (2×) and 0.7189"}, {"measurement": "BRET signal, raw replicate readings", "setting": "[7]; ONO 1111.11 nM, Suppl. Fig. 6f", "result": "0.7185 and 0.7195 and 0.7179 and 0.7229 and 0.7236 and 0.7207 and 0.7165 and 0.7204 and 0.7176"}, {"measurement": "BRET signal, raw replicate readings", "setting": "[7]; ONO 3333.33 nM, Suppl. Fig. 6f", "result": "0.719 and 0.7164 and 0.7226 and 0.7203 and 0.722 and 0.7221 and 0.7173 and 0.7187 and 0.715"}, {"measurement": "BRET signal, raw replicate readings", "setting": "[7]; ONO 10000 nM, Suppl. Fig. 6f", "result": "0.7216 and 0.7166 and 0.7165 and 0.7146 and 0.719 and 0.7226 and 0.7176 and 0.7153 and 0.7185"}, {"measurement": "BRET signal, raw replicate readings", "setting": "[7]; ONO 10000 nM, Suppl. Fig. 6d", "result": "0.7216 and 0.7166 and 0.7165 and 0.7146 and 0.719 and 0.7226 and 0.7176 and 0.7153 and 0.7185"}, {"measurement": "EC50", "setting": "[7]; ONO, pEC50, M, WT S1P5, mean ± SD, n=3", "result": 1.7, "unit": "nM"}, {"measurement": "EC50", "setting": "[7]; ONO-5430608 pEC50, single experiments #1-#3, WT S1P5, Figure 2c source data", "result": "1.35 nM and 2 nM and 1.8 nM"}, {"measurement": "mode of action on Gi-protein-mediated signaling (basal activity level)", "setting": "[7]; WT S1P5, BRET-based cAMP sensor", "result": "inverse agonist"}]}]}
